Active and inactive are the calls of the source. The calls are words filed in the database; no cut-off is given here.
Columns and labels:
[1] = Octanol-phosphate buffered saline partition coefficient, log K of the compound; assay type: physicochemical; conditions: for logD: octanol/phosphate buffered saline, read-out: log K
HEK293 = experiment: Binding affinity to human monoamine transporter expressed in HEK293 cells assessed as receptor-mediated compound uptake; assay type: cell-based
Gallus gallus = species on record: Gallus gallus; experiment: Binding affinity to monoamine transporter in dissociated chick brain stem cells assessed as receptor-mediated compound uptake; assay type: cell-based
[2] = Solubility of the compound in DMSO; assay type: physicochemical
[3] = Solubility of the compound in methanol; assay type: physicochemical
MLO-Y4 = experiment: Binding affinity to monoamine transporter in mouse MLO-Y4 cells assessed as receptor-mediated compound uptake at 20 uM by confocal microscopic analysis in presence of serotonin reuptake inhibitor clomipramine; assay type: cell-based
Rattus norvegicus [4] = experiment: Toxicity in Sprague-Dawley rat assessed as change in blood pressure at 0.25 mM administered for 30 seconds through polyethylene cannula in carotid artery; assay type: organism-based; conditions: in vivo, other, 250 µM
Brain = experiment: Drug uptake in Sprague-Dawley rat brain administered through intra-arterial injection by fluorescence microscopy analysis; assay type: ADME, tissue-based; conditions: in vivo, other
Rattus norvegicus [5] = experiment: Toxicity in Sprague-Dawley rat assessed as prolonged reduction in NRM neurons activity at 0.23 to 1 mM administered for 1 to 3 mins through polyethylene cannula in carotid artery measured immediately post dose; assay type: organism-based; conditions: in vivo, other, 1000 µM
Rattus norvegicus [6] = experiment: Toxicity in Sprague-Dawley rat assessed as change in mean breathing rate at 0.23 to 1 mM administered for 1 to 3 mins through polyethylene cannula in carotid artery measured after 200 to 400 seconds; assay type: organism-based; conditions: in vivo, other, 1000 µM
Rattus norvegicus [7] = experiment: Toxicity in Sprague-Dawley rat assessed as change in mean breathing rate at 0.25 mM administered for 30 seconds through polyethylene cannula in carotid artery; assay type: organism-based; conditions: in vivo, other, 250 µM
[8] = Drug uptake in Sprague-Dawley rat blood platelet cells administered through intra-arterial injection by fluorescence microscopy analysis; assay type: ADME, cell-based; conditions: in vivo, other
Rattus norvegicus [9] = experiment: Toxicity in Sprague-Dawley rat assessed as change in mean breathing rate at 0.23 to 1 mM administered for 1 to 3 mins through polyethylene cannula in carotid artery measured after 600 seconds; assay type: organism-based; conditions: in vivo, other, 10 min, 1000 µM
Rattus norvegicus [10] = experiment: Toxicity in Sprague-Dawley rat assessed as change in heart rate at 0.25 mM administered for 30 seconds through polyethylene cannula in carotid artery; assay type: organism-based; conditions: in vivo, other, 250 µM
Rattus norvegicus [11] = experiment: Toxicity in Sprague-Dawley rat assessed as prolonged reduction in NRM neurons activity at 0.23 to 1 mM administered for 1 to 3 mins through polyethylene cannula in carotid artery measured 30 mins post dose; assay type: organism-based; conditions: in vivo, other, 0.5 h, 1000 µM

Structure (SMILES) | logD [1] | solubility [2] | solubility [3] | Activity (HEK293) | Activity (Gallus gallus) | further results
NCCc1c[nH]c2ccc(O)cc12 [SEROTONIN] | -1.57 | – | – | – | – | –
NCCc1ccc2ccc3cccc4ccc1c2c34 | 1.42 | soluble | soluble | inactive | inactive | –
COc1cccc2c(OCCN)cccc12 | 0.28 | soluble | soluble | inactive | inactive | –
NCCc1c2ccccc2cc2ccccc12 | 1.1 | soluble | soluble | inactive | inactive | –
CN[C@H]1CC[C@@H](c2ccc(Cl)c(Cl)c2)c2ccccc21 [SERTRALINE] | – | – | – | – | – | log K ([1]; octanol/water): 1.37
NCCOc1cccc2c(O)cccc12 | 0.1 | soluble | soluble | inactive | inactive | –

More lines, main results first:

logD [1] | solubility [2] | solubility [3] | Structure (SMILES) | Activity (HEK293) | Activity (Gallus gallus) | further results
-0.58 | soluble | soluble | NCCN1C(=O)c2cccc3c(N)ccc(c23)C1=O | Active | Active | Activity (MLO-Y4): inactive; Activity (Rattus norvegicus [4]): Non-toxic; Drug uptake (Brain): Not Active; Activity (Rattus norvegicus [5]): Toxic; Activity (Rattus norvegicus [6]): Non-toxic; Activity (Rattus norvegicus [7]): Non-toxic; Drug uptake [8]: Active; Activity (Rattus norvegicus [9]): Non-toxic; Activity (Rattus norvegicus [10]): Non-toxic; Activity (Rattus norvegicus [11]): Non-toxic
-2.38 | – | – | NCCc1ccc(O)c(O)c1 [DOPAMINE] | – | – | –
0.65 | soluble | soluble | NCCn1cc2c(nc1=O)Nc1ccccc1S2 | Active | Active | –

— ChEMBL document CHEMBL2146417, “Fluorescent reporters of monoamine transporter distribution and function” (Bioorg Med Chem Lett, 2011)
